Reference: US9302999B2, “Substituted triazoles as herbicides” (E. I. DU PONT DE NEMOURS AND COMPANY, priority 2012, dated 2016)

How the values were obtained:
Format in all cases: in vivo
corn (Zea mays) = assay: Test A pre-/postemergence: corn; conditions: for Corn plant response rating: Postemergence; for Plant response rating, Corn: Preemergence
In short: (§1)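 Seeds were sown in loam/sand blend and sprayed preemergence (directed soil spray) and, simultaneously, postemergence at 2–10 cm, one- to two-leaf stage, using compounds in non-phytotoxic solvent with surfactant. After ~10 days in greenhouse, injury was rated visually versus untreated controls, 0 (no effect) to 100 (complete control).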

[1] = system: morningglory (Ipomoea spp.); assay: Test A pre-/postemergence: morningglory; conditions: for Morningglory plant response rating: Postemergence; for Plant response rating, Morningglory: Preemergence
In short: as §1

[2] = system: velvetleaf (Abutilon theophrasti); assay: Test A pre-/postemergence: velvetleaf; conditions: for Velvetleaf plant response rating: Postemergence; for Plant response rating, Velvetleaf: Preemergence
In short: as §1

rice (Oryza sativa) = assay: Test C flooded paddy test: rice; conditions: scale 0 to 100 (0 no effect, 100 complete control)
In short: (§2)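 Rating: visual, 0–100 (100 = complete control), versus untreated controls after 13 to 15 greenhouse days. Treatment went into paddy water held at 3 cm over the soil, on plants grown to two leaves.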

[3] = system: crabgrass, large (large crabgrass, Digitaria sanguinalis); assay: Test A pre-/postemergence: crabgrass, large; conditions: for Crabgrass, Large plant response rating: Postemergence; for Plant response rating, Crabgrass, Large: Preemergence
In short: as §1

[4] = system: ducksalad (Heteranthera limosa); assay: Test C flooded paddy test: ducksalad; conditions: scale 0 to 100 (0 no effect, 100 complete control)
In short: as §2

[5] = system: pigweed (Amaranthus retroflexus); assay: Test A pre-/postemergence: pigweed; conditions: for Pigweed plant response rating: Postemergence; for Plant response rating, Pigweed: Preemergence
In short: as §1

[6] = system: sedge, umbrella (small-flower umbrella sedge, Cyperus difformis); assay: Test C flooded paddy test: sedge, umbrella; conditions: scale 0 to 100 (0 no effect, 100 complete control)
In short: as §2

[7] = system: wheat (Triticum aestivum); assay: Test A pre-/postemergence: wheat; conditions: for Wheat plant response rating: Postemergence; for Plant response rating, Wheat: Preemergence
In short: as §1

[8] = system: foxtail, giant (giant foxtail, Setaria faberii); assay: Test A pre-/postemergence: foxtail, giant; conditions: for Foxtail, Giant plant response rating: Postemergence; for Plant response rating, Foxtail, Giant: Preemergence
In short: as §1

[9] = system: barnyardgrass (Echinochloa crus-galli); assay: Test C flooded paddy test: barnyardgrass; conditions: scale 0 to 100 (0 no effect, 100 complete control)
In short: as §2

[10] = system: barnyardgrass (Echinochloa crus-galli); assay: Test A pre-/postemergence: barnyardgrass; conditions: for Barnyardgrass plant response rating: Postemergence; for Plant response rating, Barnyardgrass: Preemergence
In short: as §1

[11] = 125 g ai/ha, 0 to 100 scale, 0 is no effect, 100 is complete control
[12] = 500 g ai/ha, visual rating on 0 to 100 scale (0 no effect, 100 complete control), approximately ten days
[13] = 125 g ai/ha, 0 to 100 scale (0 no effect, 100 complete control)
[14] = 500 g ai/ha, 0 to 100 scale, 0 is no effect, 100 is complete control
[15] = Flood (flooded paddy test), 62 g ai/ha, visual rating after 13 to 15 days
[16] = Flood (flooded paddy test), 250 g ai/ha, visual rating after 13 to 15 days
[17] = Flood (flooded paddy test), 125 g ai/ha, visual rating after 13 to 15 days
[18] = 125 g ai/ha, 0 to 100 scale where 0 is no effect and 100 is complete control
[19] = 500 g ai/ha, 0 to 100 scale (0 no effect, 100 complete control)

SMILES: Cc1nn(-c2ccc(Cl)cc2)nc1Oc1ccnc(C(F)(F)F)c1 [Compound 52]
- Corn plant response rating (corn (Zea mays); [11]): 10
- Corn plant response rating (corn (Zea mays); [12]): 20
- Plant response rating, Corn (corn (Zea mays); [13]): 0
- Plant response rating, Corn (corn (Zea mays); [14]): 10
- Morningglory plant response rating [1, 11]: 40
- Morningglory plant response rating [1, 12]: 100
- Plant response rating, Morningglory [1, 13]: 10
- Plant response rating, Morningglory [1, 14]: 20
- Velvetleaf plant response rating [2, 11]: 30
- Velvetleaf plant response rating [2, 12]: 100
- Plant response rating, Velvetleaf [2, 13]: 0
- Plant response rating, Velvetleaf [2, 14]: 10
- Plant response rating, Rice (rice (Oryza sativa); [15]): 15
- Plant response rating, Rice (rice (Oryza sativa); [16]): 40
- Crabgrass, Large plant response rating [3, 11]: 50
- Crabgrass, Large plant response rating [3, 12]: 100
- Plant response rating, Crabgrass, Large [3, 13]: 100
- Plant response rating, Crabgrass, Large [3, 14]: 100
- Plant response rating, Ducksalad [4, 15]: 80
- Plant response rating, Ducksalad [4, 16]: 95
- Pigweed plant response rating [5, 11]: 100
- Pigweed plant response rating [5, 12]: 100
- Plant response rating, Pigweed [5, 13]: 100
- Plant response rating, Sedge, Umbrella [6, 15]: 65
- Plant response rating, Sedge, Umbrella [6, 16]: 85
- Wheat plant response rating [7, 11]: 10
- Wheat plant response rating [7, 12]: 20
- Plant response rating, Wheat [7, 13]: 0
- Plant response rating, Wheat [7, 14]: 0
- Foxtail, Giant plant response rating [8, 11]: 50
- Foxtail, Giant plant response rating [8, 12]: 100
- Plant response rating, Foxtail, Giant [8, 13]: 100
- Plant response rating, Foxtail, Giant [8, 14]: 100
- Plant response rating, Barnyardgrass [9, 15]: 40
- Plant response rating, Barnyardgrass [9, 16]: 75
- Barnyardgrass plant response rating [10, 11]: 20
- Barnyardgrass plant response rating [10, 12]: 70
- Plant response rating, Barnyardgrass [10, 13]: 20
- Plant response rating, Barnyardgrass [10, 14]: 90

SMILES: Cc1nn(-c2cccc([N+](=O)[O-])c2)nc1C(=O)c1cccc(C(F)(F)F)c1 [Compound 62]
- Corn plant response rating (corn (Zea mays); [11]): 0
- Corn plant response rating (corn (Zea mays); [12]): 0
- Plant response rating, Corn (corn (Zea mays); [13]): 0
- Plant response rating, Corn (corn (Zea mays); [14]): 0
- Morningglory plant response rating [1, 11]: 0
- Morningglory plant response rating [1, 12]: 0
- Plant response rating, Morningglory [1, 13]: 0
- Plant response rating, Morningglory [1, 14]: 0
- Velvetleaf plant response rating [2, 11]: 0
- Velvetleaf plant response rating [2, 12]: 0
- Plant response rating, Velvetleaf [2, 13]: 0
- Plant response rating, Velvetleaf [2, 14]: 0
- Plant response rating, Rice (rice (Oryza sativa); [15]): 0
- Plant response rating, Rice (rice (Oryza sativa); [17]): 0
- Plant response rating, Rice (rice (Oryza sativa); [16]): 0
- Plant response rating, Rice (rice (Oryza sativa); Flood, 31 g ai/ha): 0
- Crabgrass, Large plant response rating [3, 11]: 0
- Crabgrass, Large plant response rating [3, 12]: 0
- Plant response rating, Crabgrass, Large [3, 13]: 0
- Plant response rating, Crabgrass, Large [3, 14]: 0
- Plant response rating, Ducksalad [4, 15]: 0
- Plant response rating, Ducksalad [4, 17]: 0
- Plant response rating, Ducksalad [4, 16]: 0
- Plant response rating, Ducksalad ([4]; Flood, 31 g ai/ha): 0
- Pigweed plant response rating [5, 11]: 0
- Pigweed plant response rating [5, 12]: 10
- Plant response rating, Pigweed [5, 13]: 0
- Plant response rating, Pigweed [5, 14]: 0
- Plant response rating, Sedge, Umbrella [6, 15]: 0
- Plant response rating, Sedge, Umbrella [6, 17]: 0
- Plant response rating, Sedge, Umbrella [6, 16]: 0
- Plant response rating, Sedge, Umbrella ([6]; Flood, 31 g ai/ha): 0
- Wheat plant response rating [7, 11]: 0
- Wheat plant response rating [7, 12]: 0
- Plant response rating, Wheat [7, 13]: 0
- Plant response rating, Wheat [7, 14]: 0
- Foxtail, Giant plant response rating [8, 11]: 0
- Foxtail, Giant plant response rating [8, 12]: 0
- Plant response rating, Foxtail, Giant [8, 13]: 0
- Plant response rating, Foxtail, Giant [8, 14]: 0
- Plant response rating, Barnyardgrass [9, 15]: 0
- Plant response rating, Barnyardgrass [9, 17]: 0
- Plant response rating, Barnyardgrass [9, 16]: 0
- Plant response rating, Barnyardgrass ([9]; Flood, 31 g ai/ha): 0
- Barnyardgrass plant response rating [10, 11]: 0
- Barnyardgrass plant response rating [10, 12]: 10
- Plant response rating, Barnyardgrass [10, 13]: 0
- Plant response rating, Barnyardgrass [10, 14]: 0

SMILES: CCc1nn(-c2ccc(C(F)(F)F)cc2)nc1Cn1cc(C(F)(F)F)nc1Cl [Compound 122]
- Corn plant response rating (corn (Zea mays); [11]): 20
- Corn plant response rating (corn (Zea mays); [12]): 30
- Plant response rating, Corn (corn (Zea mays); [18]): 10
- Plant response rating, Corn (corn (Zea mays); [19]): 20
- Morningglory plant response rating [1, 11]: 90
- Morningglory plant response rating [1, 12]: 100
- Plant response rating, Morningglory [1, 18]: 20
- Plant response rating, Morningglory [1, 19]: 50
- Velvetleaf plant response rating [2, 11]: 80
- Velvetleaf plant response rating [2, 12]: 100
- Plant response rating, Velvetleaf [2, 18]: 30
- Plant response rating, Velvetleaf [2, 19]: 60
- Plant response rating, Rice (rice (Oryza sativa); [17]): 25
- Plant response rating, Rice (rice (Oryza sativa); [16]): 30
- Plant response rating, Rice (rice (Oryza sativa); Flood, 31 g ai/ha): 0
- Plant response rating, Rice (rice (Oryza sativa); Flood, 62 g ai/ha): 0
- Crabgrass, Large plant response rating [3, 11]: 80
- Crabgrass, Large plant response rating [3, 12]: 90
- Plant response rating, Crabgrass, Large [3, 18]: 90
- Plant response rating, Crabgrass, Large [3, 19]: 100
- Plant response rating, Ducksalad [4, 17]: 60
- Plant response rating, Ducksalad [4, 16]: 65
- Plant response rating, Ducksalad ([4]; Flood, 31 g ai/ha): 0
- Plant response rating, Ducksalad ([4]; Flood, 62 g ai/ha): 0
- Pigweed plant response rating [5, 11]: 100
- Pigweed plant response rating [5, 12]: 100
- Plant response rating, Pigweed [5, 18]: 90
- Plant response rating, Pigweed [5, 19]: 100
- Plant response rating, Sedge, Umbrella [6, 17]: 85
- Plant response rating, Sedge, Umbrella [6, 16]: 85
- Plant response rating, Sedge, Umbrella ([6]; Flood, 31 g ai/ha): 70
- Plant response rating, Sedge, Umbrella ([6]; Flood, 62 g ai/ha): 75
- Wheat plant response rating [7, 11]: 20
- Wheat plant response rating [7, 12]: 30
- Plant response rating, Wheat [7, 18]: 0
- Plant response rating, Wheat [7, 19]: 20
- Foxtail, Giant plant response rating [8, 11]: 60
- Foxtail, Giant plant response rating [8, 12]: 90
- Plant response rating, Foxtail, Giant [8, 18]: 90
- Plant response rating, Foxtail, Giant [8, 19]: 100
- Plant response rating, Barnyardgrass [9, 17]: 40
- Plant response rating, Barnyardgrass [9, 16]: 40
- Plant response rating, Barnyardgrass ([9]; Flood, 31 g ai/ha): 10
- Plant response rating, Barnyardgrass ([9]; Flood, 62 g ai/ha): 20
- Barnyardgrass plant response rating [10, 11]: 40
- Barnyardgrass plant response rating [10, 12]: 70
- Plant response rating, Barnyardgrass [10, 18]: 20
- Plant response rating, Barnyardgrass [10, 19]: 70

SMILES: Cc1nn(-c2ccc(C(F)(F)F)cc2)nc1Oc1ccc(C(F)(F)F)cc1 [Compound 83]
- Corn plant response rating (corn (Zea mays); [11]): 0
- Corn plant response rating (corn (Zea mays); [12]): 0
- Plant response rating, Corn (corn (Zea mays); [13]): 0
- Plant response rating, Corn (corn (Zea mays); [14]): 0
- Morningglory plant response rating [1, 11]: 0
- Morningglory plant response rating [1, 12]: 0
- Plant response rating, Morningglory [1, 13]: 0
- Plant response rating, Morningglory [1, 14]: 0
- Velvetleaf plant response rating [2, 11]: 0
- Velvetleaf plant response rating [2, 12]: 0
- Plant response rating, Velvetleaf [2, 13]: 0
- Plant response rating, Velvetleaf [2, 14]: 0
- Plant response rating, Rice (rice (Oryza sativa); [17]): 20
- Plant response rating, Rice (rice (Oryza sativa); [16]): 25
- Plant response rating, Rice (rice (Oryza sativa); Flood, 31 g ai/ha): 10
- Plant response rating, Rice (rice (Oryza sativa); Flood, 62 g ai/ha): 20
- Crabgrass, Large plant response rating [3, 11]: 0
- Crabgrass, Large plant response rating [3, 12]: 0
- Plant response rating, Crabgrass, Large [3, 13]: 0
- Plant response rating, Crabgrass, Large [3, 14]: 0
- Plant response rating, Ducksalad [4, 17]: 20
- Plant response rating, Ducksalad [4, 16]: 30
- Plant response rating, Ducksalad ([4]; Flood, 31 g ai/ha): 0
- Plant response rating, Ducksalad ([4]; Flood, 62 g ai/ha): 20
- Pigweed plant response rating [5, 11]: 0
- Pigweed plant response rating [5, 12]: 0
- Plant response rating, Pigweed [5, 13]: 0
- Plant response rating, Pigweed [5, 14]: 0
- Plant response rating, Sedge, Umbrella [6, 17]: 20
- Plant response rating, Sedge, Umbrella [6, 16]: 30
- Plant response rating, Sedge, Umbrella ([6]; Flood, 31 g ai/ha): 10
- Plant response rating, Sedge, Umbrella ([6]; Flood, 62 g ai/ha): 20
- Wheat plant response rating [7, 11]: 0
- Wheat plant response rating [7, 12]: 0
- Plant response rating, Wheat [7, 13]: 0
- Plant response rating, Wheat [7, 14]: 0
- Foxtail, Giant plant response rating [8, 11]: 0
- Foxtail, Giant plant response rating [8, 12]: 0
- Plant response rating, Foxtail, Giant [8, 13]: 0
- Plant response rating, Foxtail, Giant [8, 14]: 0
- Plant response rating, Barnyardgrass [9, 17]: 0
- Plant response rating, Barnyardgrass [9, 16]: 0
- Plant response rating, Barnyardgrass ([9]; Flood, 31 g ai/ha): 0
- Plant response rating, Barnyardgrass ([9]; Flood, 62 g ai/ha): 0
- Barnyardgrass plant response rating [10, 11]: 0
- Barnyardgrass plant response rating [10, 12]: 0
- Plant response rating, Barnyardgrass [10, 13]: 0
- Plant response rating, Barnyardgrass [10, 14]: 0
